This note sets out measurements from patent US20050245563A1 (Millennium Pharmaceuticals, Inc., priority 2003, published 2005).

In this assay the target is T1, human Chk1 (GST-Chk1) (Homo sapiens, UniProt O14757).
T1 construct: made in house; host or cells: insect cells (baculovirus, Bac-to-Bac)
T1 sequence (O14757 1-476): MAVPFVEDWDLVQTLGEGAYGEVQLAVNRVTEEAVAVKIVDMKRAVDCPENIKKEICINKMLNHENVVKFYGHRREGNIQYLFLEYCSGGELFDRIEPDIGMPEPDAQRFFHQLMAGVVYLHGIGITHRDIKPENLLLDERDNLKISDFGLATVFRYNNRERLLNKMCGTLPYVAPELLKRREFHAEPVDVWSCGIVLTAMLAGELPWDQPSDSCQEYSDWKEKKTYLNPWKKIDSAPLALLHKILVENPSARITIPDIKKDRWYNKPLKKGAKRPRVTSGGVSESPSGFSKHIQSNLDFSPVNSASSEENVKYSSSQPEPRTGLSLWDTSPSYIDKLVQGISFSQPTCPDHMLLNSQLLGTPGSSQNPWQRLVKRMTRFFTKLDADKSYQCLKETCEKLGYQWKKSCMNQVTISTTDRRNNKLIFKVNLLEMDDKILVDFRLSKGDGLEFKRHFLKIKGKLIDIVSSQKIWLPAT
Description: Chk1 DELFIA kinase assay (2 nM GST-Chk1, 600 μM ATP). In kind it is biochemical. The conditions noted are these: Biotin-GLYRSPSMPEN-amide substrate. The method, then: Recombinant human Chk1 was expressed as a fusion protein with glutathione S-transferase at the amino-terminus (GST-Chk1) using standard baculovirus vectors and (Bac-to-Bac®) insect cell expression system purchased from GIBCO™ Invitrogen. Recombinant protein expressed in insect cells was purified using glutathione sepharose (Amersham Biotech) using standard procedures described by the manufacturer.
Chk1 DELFIA® Kinase Assay:
Assays (25 μL) utilized 2 nM GST-Chk1 containing 10 mM Tris, pH 7.5, 20% glycerol, 50 mM sodium chloride (NaCl), 0.01% Surfact-Amps® 20, 1 μM peptide stubstrate (Biotin-GLYRSPSMPEN-amide) (SEQ ID NO: 3), 01.% BSA, 2 mM DTT, 4% DMSO, 600 μM ATP, 10 MM MgCl2 and reacted for 50 minutes at room temperature. Reactions were terminated with 100 μL of Stop buffer containing 1% BSA, 10 mM Tris, pH 8.0, 150 mM NaCl, 100 mM EDTA. Stopped reactions (100 μL) were transferred to 96 well NeutrAvidin plates (Pierce) to capture the biotin-peptide substrate during a 30 minute room temperature incubation. Wells were washed and reacted with 100 μL PerkinElmer Wallac Assay Buffer containing 21.5 ng/ml anti-phospho-Ser216-Cdc25c rabbit polyclonal antibody from Cell Signaling Technology (Beverly, Mass.) and 292 ng/ml europium labeled anti-rabbit-IgG for 1 hour at room temperature. Wells were washed and europium released from the bound antibody by addition of Enhancement Solution (100 μL) (PerkinElmer Wallac) and detected using a Perkin Elmer Wallac Envison™ 2100 multilabel reader using standard manufacturer settings.

Turning to `COCCc1[nH]nc2c1c(=O)n(C[C@H](C)CN)c1ccc(Cl)cc21` [Example 223, 5-(3-Amino-2R-methyl-propyl)-8-chloro-3-(2-methoxy-ethyl)-2,5-dihydro-pyrazolo[4,3-c]quinolin-4-one], the IC50 was less than 1 µM.

The compound `Cc1[nH]nc2c1c(=O)n(C[C@@H]1CCCNC1)c1ccc(Cl)cc21` [Example 224, 8-Chloro-3-methyl-5R-piperidin-3-ylmethyl-2,5-dihydro-pyrazolo[4,3-c]quinolin-4-one] showed an IC50 of less than 1 µM.

The compound `Cc1[nH]nc2c1c(=O)n(C[C@H]1CCCNC1)c1ccc(Cl)cc21` [Example 225, 8-Chloro-3-methyl-5S-piperidin-3-ylmethyl-2,5-dihydro-pyrazolo[4,3-c]quinolin-4-one] came in with an IC50 of less than 1 µM.

Compound `COCCc1[nH]nc2c1c(=O)n(C[C@@H]1CCCNC1)c1ccc(Cl)cc21` [Example 226, 8-Chloro-3-(2-methoxy-ethyl)-5R-piperidin-3-ylmethyl-2,5-dihydro-pyrazolo[4,3-c]quinolin-4-one] registered an IC50 of less than 1 µM.

Turning to `COCCc1[nH]nc2c1c(=O)n(C[C@H]1CCCNC1)c1ccc(Cl)cc21` [Example 227, 8-Chloro-3-(2-methoxy-ethyl)-5S-piperidin-3-ylmethyl-2,5-dihydro-pyrazolo[4,3-c]quinolin-4-one], the IC50 is less than 1 µM.

`Cc1[nH]nc2c1c(=O)n(CC1CNC1)c1ccc(Cl)cc21` [Example 228, 5-Azetidin-3-ylmethyl-8-chloro-3-methyl-2,5-dihydro-pyrazolo[4,3-c]quinolin-4-one] yielded an IC50 of less than 1 µM.

`Cc1[nH]nc2c1c(=O)n(CCC(C)(C)N)c1ccc(Cl)cc21` [Example 229, 5-(3-Amino-3-methyl-butyl)-8-chloro-3-methyl-2,5-dihydro-pyrazolo[4,3-c]quinolin-4-one] showed an IC50 of less than 1 µM.

The compound `Cc1[nH]nc2c1c(=O)n(CC(=O)C1CCCN1)c1ccc(Cl)cc21` (centres unmarked) [Example 230, 8-Chloro-3-methyl-5-(2-oxo-2-pyrrolidin-2-yl-ethyl)-2,5-dihydro-pyrazolo[4,3-c]quinolin-4-one] came in with an IC50 of less than 1 µM.

For `CNCCCn1c(=O)c2c(C)[nH]nc2c2cc(Cl)ccc21` [Example 231, 8-Chloro-3-methyl-5-(3-methylamino-propyl)-2,5-dihydro-pyrazolo[4,3-c]quinolin-4-one], the IC50 is less than 1 µM.

For the compound `CNCCCn1c(=O)c2c(C)[nH]nc2c2cc(I)ccc21` [Example 234, 8-Iodo-3-methyl-5-(3-methylamino-propyl)-2,5-dihydro-pyrazolo[4,3-c]quinolin-4-one], the IC50 was less than 1 µM.

`CNCCCn1c(=O)c2c(C)[nH]nc2c2cc(C)ccc21` [Example 235, 3,8-Dimethyl-5-(3-methylamino-propyl)-2,5-dihydro-pyrazolo[4,3-c]quinolin-4-one] showed an IC50 of less than 1 µM.

`CNCCCn1c(=O)c2c(CCOC)[nH]nc2c2cc(C)ccc21` [Example 236, 3-(2-Methoxy-ethyl)-8-methyl-5-(3-methylamino-propyl)-2,5-dihydro-pyrazolo[4,3-c]quinolin-4-one] gave an IC50 of less than 1 µM.

The compound `CNCCCn1c(=O)c2c(CCOC)[nH]nc2c2cc(Cl)ccc21` [Example 237, 8-Chloro-3-(2-methoxy-ethyl)-5-(3-methylamino-propyl)-2,5-dihydro-pyrazolo[4,3-c]quinolin-4-one] gave an IC50 of less than 1 µM.

Compound `CCNCCCn1c(=O)c2c(C)[nH]nc2c2cc(Cl)ccc21` [Example 238, 8-Chloro-5-(3-ethylamino-propyl)-3-methyl-2,5-dihydro-pyrazolo[4,3-c]quinolin-4-one] had an IC50 of less than 1 µM.

For `CCCNCCCn1c(=O)c2c(C)[nH]nc2c2cc(Cl)ccc21` [Example 239, 8-Chloro-3-methyl-5-(3-propylamino-propyl)-2,5-dihydro-pyrazolo[4,3-c]quinolin-4-one], the IC50 is less than 1 µM.

Take `Cc1[nH]nc2c1c(=O)n(CCCNCc1cccs1)c1ccc(Cl)cc21` [Example 242, 8-Chloro-3-methyl-5-{3-[(thiophen-2-ylmethyl)-amino]-propyl}-2,5-dihydro-pyrazolo[4,3-c]quinolin-4-one]: the IC50 is less than 1 µM.

`Cc1[nH]nc2c1c(=O)n(CCCNCc1ccc[nH]1)c1ccc(Cl)cc21` [Example 243, 8-Chloro-3-methyl-5-{3-[(1H-pyrrol-2-ylmethyl)-amino]-propyl}2,5-dihydro-pyrazolo[4,3-c]quinolin-4-one] showed a concentration for half-maximal inhibition (IC50) of less than 1 µM.

Take `Cc1[nH]nc2c1c(=O)n(CCCNCc1ncc[nH]1)c1ccc(Cl)cc21` [Example 244, 8-Chloro-5-{3-[(1H-imidazol-2-ylmethyl)-amino]-propyl}-3-methyl-2,5-dihydro-pyrazolo[4,3-c]quinolin-4-one]: the IC50 is less than 1 µM.

On to `Cc1[nH]nc2c1c(=O)n(CC(O)C1CCCN1)c1ccc(Cl)cc21` (centres unmarked) [Example 246, 8-Chloro-5-(2-hydroxy-2-pyrrolidin-2-yl-ethyl)-3-methyl-2,5-dihydro-pyrazolo[4,3-c]quinolin-4-one], for which the IC50 was less than 1 µM.

In the case of `CNCC(O)Cn1c(=O)c2c(C)[nH]nc2c2cc(Cl)ccc21` (centres unmarked) [Example 247, 8-Chloro-5-(2-hydroxy-3-methylamino-propyl)-3-methyl-2,5-dihydro-pyrazolo[4,3-c]quinolin-4-one], the IC50 is less than 1 µM.

As to `CCNCC(O)CCn1c(=O)c2c(C)[nH]nc2c2cc(Cl)ccc21` (centres unmarked) [Example 248, 8-Chloro-5-(4-ethylamino-3-hydroxy-butyl)-3-methyl-2,5-dihydro-pyrazolo[4,3-c]quinolin-4-one], the IC50 is less than 1 µM.

`CNCC(O)CCn1c(=O)c2c(C)[nH]nc2c2cc(Cl)ccc21` (centres unmarked) [Example 249, 8-Chloro-5-(3-hydroxy-4-methylamino-butyl)-3-methyl-2,5-dihydro-pyrazolo[4,3-c]quinolin-4-one] had an IC50 of less than 1 µM.

In the case of `CCCNCC(O)CCn1c(=O)c2c(C)[nH]nc2c2cc(Cl)ccc21` (centres unmarked) [Example 250, 8-Chloro-5-(3-hydroxy-4-propylamino-butyl)-3-methyl-2,5-dihydro-pyrazolo[4,3-c]quinolin-4-one], the IC50 was less than 1 µM.

For `Cc1[nH]nc2c1c(=O)n(CCCN)c1ccc(OCCCN)cc21` [Example 255, 8-(3-Amino-propoxy)-5-(3-amino-propyl)-3-methyl-2,5-dihydro-pyrazolo[4,3-c]quinolin-4-one], the IC50 is less than 1 µM.

In the case of `CCOc1ccc2c(c1)c1n[nH]c(C)c1c(=O)n2CCCN` [Example 256, 5-(3-Amino-propyl)-8-ethoxy-3methyl-2,5-dihydro-pyrazolo[4,3-c]quinolin-4-one], the IC50 is less than 1 µM.

`Cc1[nH]nc2c1c(=O)n(CCCN)c1ccc(OCc3ccccc3)cc21` [Example 257, 5-(3-Amino-propyl)-8-benzyloxy-3-methyl-2,5-dihydro-pyrazolo[4,3-c]quinolin-4-one] showed an IC50 of less than 1 µM.

In the case of `CCCOc1ccc2c(c1)c1n[nH]c(C)c1c(=O)n2CCCN` [Example 258, 5-(3-Amino-propyl)-3-methyl-8-propoxy-2,5-dihydro-pyrazolo[4,3-c]quinolin-4-one], the IC50 was less than 1 µM.

Consider `Cc1[nH]nc2c1c(=O)n(CCCN)c1ccc(OCC(C)C)cc21` [Example 259, 5-(3-Amino-propyl)-8-isobutoxy-3-methyl-2,5-dihydro-pyrazolo[4,3-c]quinolin-4-one], for which the IC50 was less than 1 µM.

`Cc1[nH]nc2c1c(=O)n(CCCN)c1ccc(N)cc21` [Example 260, 8-Amino-5-(3-amino-propyl)-3-methyl-2,5-dihydro-pyrazolo[4,3-c]quinolin-4-one] came in with an IC50 of less than 1 µM.

In the case of `CC(=O)Nc1ccc2c(c1)c1n[nH]c(C)c1c(=O)n2CCCN` [Example 261, N-[5-(3-Amino-propyl)-3-methyl-4-oxo-4,5-dihydro-2H-pyrazolo[4,3-c]quinolin-8-yl]-acetamide], the IC50 is less than 1 µM.

On to `Cc1[nH]nc2c1c(=O)n(CCCN)c1ccc(NC(=O)[C@@H]3CCCN3)cc21` [Example 262, Pyrrolidine-2S-carboxylic acid [5-(3-amino-propyl)-3-methyl-4-oxo-4,5-dihydro-2H-pyrazolo[4,3-c]quinolin-8-yl]-amide], for which the IC50 was less than 1 µM.

For the compound `Cc1[nH]nc2c1c(=O)n(CCCN)c1ccc(NC(=O)[C@H]3CCCN3)cc21` [Example 263, Pyrrolidine-2R-carboxylic acid [5-(3-amino-propyl)-3-methyl-4-oxo-4,5-dihydro-2H-pyrazolo[4,3-c]quinolin-8-yl]-amide], the IC50 was less than 1 µM.

The term IC50 denotes the point on the concentration scale where inhibition reaches its midpoint. Lower therefore signals greater potency.
